Key:
[1] = Free fraction in rat plasma; type: in vitro ADME; details: rat plasma, Figure 3b
Method: The free fraction in vitro was determined by adding the respective radioligand (100 kBq) to plasma or CSF (200 µL) and mixed vigorously. Aliquots of 20–50 µL were transferred to size exclusion chromatography columns (MicroSpin G-50; GE Healthcare GmbH, Solingen, Germany, centrifuged for two min at 2000 rpm, and the radioactivity in the filtrate and in the resin were measured in the gamma-counter. Three independent experiments were performed in triplicates.
For the ex vivo determination of the radioligands binding to proteins the respective tracer (15 MBq) was administered intravenous to male Sprague Dawley rats (200–250 g) under isoflurane anesthesia. Blood samples were drawn intravenous after 5, 15 and 30 min and centrifuged for 5 min at 2000 rpm in heparin-coated vials. An aliquot of 50 µL was taken from the supernatant and added to an equal volume of water (10% TFA). The protein precipitate was centrifuged off for 5 min at 25,000 rpm and analyzed together with a further 50 µL aliquot of the supernatant in the gamma-counter. Two independent experiments were performed.

dopamine D3 receptor [2] = test: Dynamic small-animal PET recordings; type: in vivo; details: rat
Method: Small-animal PET imaging studies were conducted with male Sprague Dawleys rats (250–300 g) on a Inveon microPET scanner (Siemens Healthcare, Erlangen, Germany) under isoflurane (3%) anesthesia. After intravenous injection of [^18F]2b (10–15 MBq), dynamic emission recordings consisting of 13 frames of duration increasing from 30 s to 10 min were acquired to a total of 60 min. For displacement studies BP897 (1 mg/kg) was administered 30 min prior to radioligand injection. Dynamic emission images were corrected for attenuation and decay, and reconstructed by the iterative maximum a posteriori estimation, using software installed in the Inveon PET for dead time and random correction. The dynamic PET scan was then evaluated using the software Amide. The regions of interest were evaluated voxel based and the mean activity in %ID/g of each frame calculated.

dopamine D3 receptor [3] = test: Ex vivo autoradiography of rat brain sections; type: in vivo
Method: Male Sprague Dawley rats (250–300 g) were injected with 20 MBq of [^18F]2b intra-venous under isoflurane (4%) anesthesia. For blocking studies BP897 (1 mg/kg) was administerd 30 min prior to radioligand injection. Rats were sacrificed by decapitation 30 min post radioligand injection and brains were removed and frozen in cooled hexane at −70 °C. Coronal and horizontal brain sections (12 µm) were cut on a cryostat microtome (HM550, Microm) and thaw-mounted on covered glass slides (Histobond®). The glass slides were placed on a phosphor screen (Fujitsu) over night. The screens were analyzed with a DUERR Medical HD-CR 35 Bio (Raytest) and evaluated using the software AIDA image analyzer (Raytest). Afterwards the sections were HE stained and ascribed to figures in the rat brain atlas. Binding in the regions of interest were evaluated as ratio of the activity in the region of interest through background activity. Binding in the cerebral matter of the respective sections was defined as background activity.

[4] = lateral ventricle, coronal section (Interaural 4.70, Bregma −4.30)
[5] = third ventricle, horizontal section (Interaural 5.90, Bregma −4.10)

COc1ccccc1N1CCN(CCCCNC(=O)/N=N/c2ccc([18F])cc2)CC1 [[^18F]2b]
free radioligand in rat plasma [1]: 80% | uptake in the third and lateral ventricle (dopamine D3 receptor [2]): approximately 0.25 %ID/g | uptake in the pituitary gland (dopamine D3 receptor [2]; 30 min p.i.): 0.8 %ID/g | blocking of fourth ventricle uptake with BP897 (dopamine D3 receptor [2]; BP897 1 mg/kg): 50% | decrease of initial and mean pituitary gland uptake by blocking with BP897 (dopamine D3 receptor [2]; BP897 1 mg/kg): 35% | uptake in the pituitary gland (dopamine D3 receptor [2]; after approximately 5 min): 0.94 %ID/g | maximum uptake in the cerebral matter (dopamine D3 receptor [2]; at 65 s post intravenous injection): 0.14 %ID/g | uptake in the pituitary gland (dopamine D3 receptor [2]; end of the recording): 0.76 %ID/g | uptake in the fourth ventricle (dopamine D3 receptor [2]; initial uptake, constant over the 60 min of recording): 0.4 %ID/g | uptake in the cerebral matter after wash-out (dopamine D3 receptor [2]; over the 60 min of recording): 0.07 %ID/g | ratio ROI/background (dopamine D3 receptor [3]; lateral and third ventricle, section (Interaural 5.70, Bregma −3.30)): 22 | displacement by BP897 (dopamine D3 receptor [3]; lateral and third ventricle, sections (Interaural 10.60, Bregma 1.60) and (Interaural 7.70, Bregma −1.30)): no displacement | ratio ROI/background (dopamine D3 receptor [3]; lateral and third ventricle, sections (Interaural 10.60, Bregma 1.60) and (Interaural 7.70, Bregma −1.30), 30 min p.i.): ~15 | displacement with BP897 (dopamine D3 receptor [3]; [4]): 60% | ratio ROI/background (dopamine D3 receptor [3]; [4]): ~30 | displacement by BP897 (dopamine D3 receptor [3]; section (Interaural 5.70, Bregma −3.30)): 40%–50% | displacement through BP897 (dopamine D3 receptor [3]; [5]): 50% | ratio ROI/background (dopamine D3 receptor [3]; [5]): 32

From paper PMC6272905, “In Vitro and In Vivo Characterization of Selected Fluorine-18 Labeled Radioligands for PET Imaging of the Dopamine D3 Receptor” (Molecules, 2016)
